In patent US11542282B2, “Low affinity poly(AD-ribose) polymerase 1 dependent cytotoxic agents” (THE TRUSTEES OF THE UNIVERSITY OF PENNSYLVANIA, priority 2018, dated 2023):

Legend:
OVCAR8 cells = experiment: Cell viability / cytotoxicity assay in OVCAR8 cells (CellTiter Glo); type: cell-based; details: Homo sapiens, OVCAR-8, Table 4
Protocol: (§1) Cells were cultured using standard techniques at 37° C. with 5% CO2 and 15% 02. […] Genetically engineered PARP-1 and PARP-2 double knockout mouse embryonic fibroblast (MEF) were used for cell viability studies with wildtype control. All cells were cultured in RPMI 1640 with 10% FBS and 1% penicillin/streptomycin.
(§2) Cell viability assays were carried out using four cell lines including OVCAR8, MEF wt, MEF PARP-1 (−/−) KO, and MEF PARP-2 (−/−) KO as described in Makvandi cited above. Briefly, cells were seeded in black wall clear bottom 96-well plates at concentrations of 1,000 cells/well. After 24 h, cells were then treated with concentrations from 100-0.016 μM. Cells were incubated with compounds for 4-7 days and then assayed for cell viability using the luminescent based assay, CellTiter Glo (Promega, Waltham Mass.). Plates were read on an Enspire multimode plate reader (Perkin Elmer). Data was normalized to percent survival at each concentration evaluated by diving the luminescent signal in treated wells vs. the average of vehicle controls. Experiments were repeated three times and all compounds were assayed during each experiment.
Cytotoxicity was then examined in OVCAR8 cells at 1, 10 and 100 μm concentrations as described above. See, FIGS. 1A-1C.
EC50 values of compounds 18-103 were obtained using OVCAR8 cells. See, Table 4.

PARP-1 = PARP-1 (Homo sapiens, UniProt P09874); experiment: PARP-1 radioligand binding in live OVCAR8 cells ([125I]KX1 competition); details: for IC50: radioligand binding in OVCAR8 cells
Protocol: as §1
The affinity of each compound for the PARP-1 enzyme was evaluated using a radioligand binding method described in Makvandi, A radiotracer strategy to quantify PARP-1 expression in vivo provides a biomarker that can enable patient selection for PARP inhibitor therapy. Cancer Research 2016. Briefly, OVCAR8 ovarian cancer cells were seeded in 96-well Stripwell plates at a density of 40,000 cells/well 24 hrs prior to the study. On the day of study, compounds were diluted in RPMI to concentrations of 100 μM-0.064 nM. […] Reactions were allowed to equilibrate for 1 hr and were then washed with 200 μL of PBS. Wells were separated and counted on an automatic Wizard gamma counter (Perkin Elmer, Waltham Mass.). […] Experiments were repeated three times with adjusting dose concentrations to increase accuracy of IC50 values.
Compounds 10-17 were evaluated for PARP-1 inhibition using a radioligand binding assay protocol with BRCA1 methylated ovarian cancer cells (OVCAR8) as described above. See, Table 3. […] Compared to 1a, oxaazaspiro analogue 1b performed slightly better with scaffold 10b displaying a PARP-1 binding value of 24.9 nM.

[1] = system: MEF PARP-1 (-/-) KO cells; experiment: Cell viability assay in MEF PARP-1 KO-/- cells; type: cell-based; details: Mus musculus, NA = Not applicable, no cell death observed
Protocol: (§3) Genetically engineered PARP-1 and PARP-2 double knockout mouse embryonic fibroblast (MEF) were used for cell viability studies with wildtype control.
as §2, with “After 24 h, cells were then treated with concentrations from 100-0.016 μM. Cells were incubated with compounds for 4-7 days and then assayed for cell viability using the luminescent based assay, CellTiter Glo (Promega, Waltham Mass.).” left out
(§4) This isogenic model was selected due to the highly conserved nature of the PARP catalytic domain, all-owing investigation in enzyme specificity.
Enzyme dependency of selected compounds in MEF PARP-1 KO−/− cells (FIG. 2B) was performed as described above in order to identify if these analogues act through other cellular targets.

[2] = system: MEF PARP-2 (-/-) KO cells; experiment: Cell viability assay in MEF PARP-2 KO-/- cells; type: cell-based, mouse; details: Mus musculus, NA = Not applicable, no cell death observed
Protocol: as §3
as §2, with “After 24 h, cells were then treated with concentrations from 100-0.016 μM. Cells were incubated with compounds for 4-7 days and then assayed for cell viability using the luminescent based assay, CellTiter Glo (Promega, Waltham Mass.).” left out
as §4
The cell cytotoxicity profile of these selected compounds in MEF PARP-2 KO−/− cell lines was then analyzed as described above.

MEF WT cells = experiment: Cell viability assay in MEF WT cells; type: cell-based, mouse; details: NA = Not applicable, no cell death observed
Protocol: as §3
as §2, with “After 24 h, cells were then treated with concentrations from 100-0.016 μM. Cells were incubated with compounds for 4-7 days and then assayed for cell viability using the luminescent based assay, CellTiter Glo (Promega, Waltham Mass.).” left out
as §4

Chain of PARP-1 (P09874 whole entry): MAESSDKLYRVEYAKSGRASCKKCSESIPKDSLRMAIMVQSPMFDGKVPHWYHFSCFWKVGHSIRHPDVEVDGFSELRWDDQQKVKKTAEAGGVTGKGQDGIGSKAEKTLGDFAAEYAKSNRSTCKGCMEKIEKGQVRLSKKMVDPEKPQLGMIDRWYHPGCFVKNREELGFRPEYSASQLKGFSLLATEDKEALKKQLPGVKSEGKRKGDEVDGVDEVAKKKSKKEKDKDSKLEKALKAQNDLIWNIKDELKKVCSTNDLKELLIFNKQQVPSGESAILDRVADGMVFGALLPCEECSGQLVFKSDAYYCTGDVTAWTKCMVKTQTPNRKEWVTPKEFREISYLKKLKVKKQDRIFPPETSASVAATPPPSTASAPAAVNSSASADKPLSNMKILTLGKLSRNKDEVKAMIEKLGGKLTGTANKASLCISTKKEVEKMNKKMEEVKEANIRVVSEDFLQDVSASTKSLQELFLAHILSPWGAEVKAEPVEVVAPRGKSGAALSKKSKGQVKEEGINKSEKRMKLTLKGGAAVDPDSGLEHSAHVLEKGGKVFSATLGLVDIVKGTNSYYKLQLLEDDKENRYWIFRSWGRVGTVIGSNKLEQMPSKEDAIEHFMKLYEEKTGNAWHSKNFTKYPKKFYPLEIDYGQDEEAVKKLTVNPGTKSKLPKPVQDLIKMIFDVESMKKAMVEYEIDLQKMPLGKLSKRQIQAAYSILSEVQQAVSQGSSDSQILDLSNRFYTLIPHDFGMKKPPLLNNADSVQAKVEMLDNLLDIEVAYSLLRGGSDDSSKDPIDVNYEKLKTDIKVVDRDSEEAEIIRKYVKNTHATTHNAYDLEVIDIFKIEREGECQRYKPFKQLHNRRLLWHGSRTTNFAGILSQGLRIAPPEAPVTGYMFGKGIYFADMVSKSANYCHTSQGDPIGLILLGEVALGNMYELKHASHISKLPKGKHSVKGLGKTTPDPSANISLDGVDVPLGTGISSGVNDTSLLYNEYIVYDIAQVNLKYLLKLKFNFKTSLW

Row | EC50 (PARP-1) | IC50 (PARP-1) | fold lower PARP-1 affinity compared to the methylene congener (PARP-1; 10c vs 10a, 15b vs 15a) | Compound | EC50 (OVCAR8 cells) | EC50 [1] | EC50 [2] | EC50 (MEF WT cells; Mus musculus) | EC50 (MEF WT cells)
1 | 0.0218 µM | – | – | O=C(c1ccc(F)cc1)N1CC2(C1)CN(C(=O)c1cc(Cc3n[nH]c(=O)c4ccccc34)ccc1F)C2 [46 (X = F)] | 36 µM | – | – | – | –
2 | 0.0654 ± 0.0015 µM | – | – | O=C(c1cc(Cc2n[nH]c(=O)c3ccccc23)ccc1F)N1CC2(CCCCC2)C1 [Compound 12a, 4-(4-Fluoro-3-(2-azaspiro[3.5]nonane-2-carbonyl)benzyl)phthalazin-1(2H)-one] | – | 48.3 µM | 39.9 µM | 25.6 µM | –
3 | 3.12 µM | 3.12 µM | – | CC(C)(C)OC(=O)N1CCC2(CC1)CN(C(=O)c1cc(Cc3n[nH]c(=O)c4ccccc34)ccc1F)C2 [Compound 12b, Tert-butyl 2-(2-fluoro-5-((4-oxo-3,4-dihydrophthalazin-1-yl)methyl)benzoyl)-2,7-diazaspiro[3.5]nonane-7-carboxylate] | – | 49.2 µM | 41.5 µM | ~23 µM | 23.4 µM
4 | 4.4 µM | 4.4 µM | ~85 fold | CC(C)(C)OC(=O)N1CCC2(CCN(C(=O)c3cc(Cc4n[nH]c(=O)c5ccccc45)ccc3F)C2)C1 (stereo not shown) [Compound 15b, Tert-butyl 7-(2-fluoro-5-((4-oxo-3,4-dihydrophthalazin-1-yl)methyl)benzoyl)-2,7-diazaspiro[4.4]nonane-2-carboxylate] | – | 46.4 µM | 23.4 µM | 17.2 µM | –
5 | 0.1414 ± 0.0013 µM | – | – | O=C(c1cc(Cc2n[nH]c(=O)c3ccccc23)ccc1F)N1CCC2(CCCCC2)C1 [Compound 16a, 4-(4-Fluoro-3-(2-azaspiro[4.5]decane-2-carbonyl)benzyl)phthalazin-1(2H)-one] | – | 51.6 µM | 46.8 µM | 42.7 µM | –
6 | 1.1 µM | – | – | CC(C)(C)OC(=O)N1CCC2(CC1)CCN(C(=O)c1cc(Cc3n[nH]c(=O)c4ccccc34)ccc1F)C2 [Compound 16b, Tert-butyl 2-(2-fluoro-5-((4-oxo-3,4-dihydrophthalazin-1-yl)methyl)benzoyl)-2,8-diazaspiro[4.5]decane-8-carboxylate] | – | 45.9 µM | 31.6 µM | 9.4 µM | –
7 | 0.225 µM | – | – | O=C(c1cc(Cc2n[nH]c(=O)c3ccccc23)ccc1F)N1CCC2(CCN(C(=O)C3CC3)CC2)C1 [Compound 16d, 4-(3-(8-(Cyclopropanecarbonyl)-2,8-diazaspiro[4.5]decane-2-carbonyl)-4-fluorobenzyl)phthalazin-1(2H)-one] | – | – | 61 µM | 41.6 µM | –
8 | 0.0571 ± 0.0012 µM | – | – | O=C(c1cc(Cc2n[nH]c(=O)c3ccccc23)ccc1F)N1CCC2(CCCCC2)CC1 [Compound 17a, 4-(4-Fluoro-3-(3-azaspiro[5.5]undecane-3-carbonyl)benzyl)phthalazin-1(2H)-one] | – | – | 41.3 µM | 41.3 µM | –
9 | 0.453 µM | 0.453 µM | – | CC(C)(C)OC(=O)N1CCC2(CC1)CCN(C(=O)c1cc(Cc3n[nH]c(=O)c4ccccc34)ccc1F)CC2 [Compound 17b, Tert-butyl 9-(2-fluoro-5-((4-oxo-3,4-dihydrophthalazin-1-yl)methyl)benzoyl)-3,9-diazaspiro[5.5]undecane-3-carboxylate] | – | 43.4 µM | 19.2 µM | 16.9 µM | –
10 | 0.0208 ± 0.0011 µM | – | – | CO[C@H]1C[C@@H](NC(=O)c2cc(Cc3n[nH]c(=O)c4ccccc34)ccc2F)C1 [Compound 19] | 17.1 ± 1.2 µM | – | – | – | –
11 | – | – | – | CO[C@H]1C[C@H](NC(=O)c2cc(Cc3n[nH]c(=O)c4ccccc34)ccc2F)C1 [Compound 20] | 72.2 µM | – | – | – | –
12 | 0.0496 ± 0.0011 µM | – | – | COC1CCC(NC(=O)c2cc(Cc3n[nH]c(=O)c4ccccc34)ccc2F)C1 (stereo not shown) [Compound 21] | 17 ± 1.2 µM | – | – | – | –
13 | 0.2263 ± 0.0011 µM | – | – | COC1CCC(NC(=O)c2cc(Cc3n[nH]c(=O)c4ccccc34)ccc2F)CC1 (stereo not shown) [Compound 22] | 16.2 ± 1.2 µM | – | – | – | –
14 | 0.00827 ± 0.0011 µM | – | – | COC1CN(C(=O)c2cc(Cc3n[nH]c(=O)c4ccccc34)ccc2F)C1 [Compound 23] | 71.5 ± 1.2 µM | – | – | – | –
15 | 0.00421 ± 0.0011 µM | – | – | COC1CCN(C(=O)c2cc(Cc3n[nH]c(=O)c4ccccc34)ccc2F)C1 (stereo not shown) [Compound 24] | 37.3 ± 1.2 µM | – | – | – | –
16 | 0.00474 ± 0.0011 µM | – | – | COC1CCCN(C(=O)c2cc(Cc3n[nH]c(=O)c4ccccc34)ccc2F)CC1 (stereo not shown) [Compound 25] | 20.2 ± 1.3 µM | – | – | – | –
17 | 0.00754 ± 0.0011 µM | – | – | O=C(c1cc(Cc2n[nH]c(=O)c3ccccc23)ccc1F)N1CC(OCCF)C1 [Compound 26, 4-(4-fluoro-3-(3-(2-fluoroethoxy)azetidine-1-carbonyl)benzyl)phthalazin-1(2H)-one] | 74.1 ± 1.3 µM | – | – | – | –
18 | 0.0101 ± 0.0011 µM | – | – | O=C(c1cc(Cc2n[nH]c(=O)c3ccccc23)ccc1F)N1CC[C@@H](OCCF)C1 [Compound 28, (R)-4-(4-fluoro-3-(3-(2-fluoroethoxy)pyrrolidine-1-carbonyl)benzyl)phthalazin-1(2H)-one] | 30.9 ± 1.2 µM | – | – | – | –
19 | 0.00688 µM | – | – | O=C(c1cc(Cc2n[nH]c(=O)c3ccccc23)ccc1F)N1CC[C@H](OCCF)C1 [Compound 29, (S)-4-(4-fluoro-3-(3-(2-fluoroethoxy)pyrrolidine-1-carbonyl)benzyl)phthalazin-1(2H)-one] | 56.6 µM | – | – | – | –
20 | 0.00395 ± 0.0012 µM | – | – | O=C(c1cc(Cc2n[nH]c(=O)c3ccccc23)ccc1F)N1CCC(OCCF)CC1 [Compound 31, 4-(4-fluoro-3-(4-(2-fluoroethoxy)piperidine-1-carbonyl)benzyl)phthalazin-1(2H)-one] | 17.1 ± 1.2 µM | – | – | – | –
21 | 0.00562 ± 0.0011 µM | – | – | O=C(c1cc(Cc2n[nH]c(=O)c3ccccc23)ccc1F)N1CCCC(OCCF)CC1 (stereo not shown) [Compound 33, 4-(4-fluoro-3-(4-(2-fluoroethoxy)azepane-1-carbonyl)benzyl)phthalazin-1(2H)-one] | 11.3 ± 1.3 µM | – | – | – | –
22 | 0.000376 µM | – | – | O=C(c1cc(Cc2n[nH]c(=O)c3ccccc23)ccc1F)N1CC2(C1)CN(c1ccc(F)cc1)C2 [Compound 40, 4-(4-fluoro-3-(6-(4-fluorophenyl)-2,6-diazaspiro[3.3]heptane-2-carbonyl)benzyl)phthalazin-1(2H)-one] | 12 µM | – | – | – | –

Row | Compound | EC50 (PARP-1) | IC50 (PARP-1) | fold lower PARP-1 affinity compared to the methylene congener (PARP-1; 10c vs 10a, 15b vs 15a) | EC50 (OVCAR8 cells) | EC50 [1] | EC50 [2] | EC50 (MEF WT cells; Mus musculus) | EC50 (MEF WT cells)
23 | O=C(c1cc(Cc2n[nH]c(=O)c3ccccc23)ccc1F)N1CCC2(CC1)CCN(C(=O)C1CC1)CC2 [Compound 17d, 4-(3-(9-(Cyclopropanecarbonyl)-3,9-diazaspiro[5.5]undecane-3-carbonyl)-4-fluorobenzyl)phthalazin-1(2H)-one] | 0.0443 µM | 0.0443 µM | – | – | 49.7 µM | 21.6 µM | 24.8 µM | –
